Test results as given in ChEMBL document CHEMBL5696441 (Nat Chem Biol, 2011).

Tests used:
[1] = target: Uncharacterized serine/threonine-protein kinase SBK3 (Homo sapiens) (UniProt P0C264); test: Inhibition of SgK110 (unknown origin) assessed as remaining activity at 1 uM by Kinome scan method relative to control
[2] = tested on: Epidermal growth factor receptor (Homo sapiens), P00533 [L858R,T790M]; test: Inhibition of human EGFR T790M/L858R mutant assessed as residual activity at 1 uM using PolyEY as substrate in presence of 33P-ATP by ProQinase assay relative to control
[3] = target: ALK tyrosine kinase receptor (Homo sapiens) (UniProt Q9UM73); test: Inhibition of ALK (unknown origin) assessed as remaining activity at 1 uM by Kinome scan method relative to control
[4] = Anti-inflammatory activity against human derived high respond PBMC cells assessed as inhibition in stimulated IL-17A cytokine release incubated for 2 hrs in the presence of LPS/SEB/aCD28 by Luminex based sandwich immunoassay; format: functional, cell-based
[5] = tested on: Epidermal growth factor receptor (Homo sapiens), P00533 [L858R]; test: Inhibition of EGFR L858R mutant (unknown origin) assessed as remaining activity at 1 uM by Kinome scan method relative to control
[6] = tested on: Epidermal growth factor receptor (Homo sapiens), P00533 [T790M]; test: Inhibition of human EGFR T790M mutant assessed as residual activity at 1 uM using PolyEY as substrate in presence of 33P-ATP by ProQinase assay relative to control
[7] = target: RAC-beta serine/threonine-protein kinase (Homo sapiens) (UniProt P31751); test: Inhibition of AKT2 (unknown origin) assessed as remaining activity at 1 uM by Kinome scan method relative to control
[8] = target: Insulin receptor-related protein (Homo sapiens) (UniProt P14616); test: Inhibition of human INSRR assessed as residual activity at 1 uM using poly(Ala,Glu,Lys,Tyr)6:2:5:1 as substrate in presence of 33P-ATP by ProQinase assay relative to control
[9] = tested on: Tyrosine-protein kinase ABL1 (Homo sapiens), P00519 [Y253F]; test: Inhibition of ABL1 Y253F mutant (unknown origin) assessed as remaining activity at 1 uM by Kinome scan method relative to control
[10] = tested on: Mast/stem cell growth factor receptor Kit (Homo sapiens), P10721 [V559D]; test: Inhibition of KIT V559D mutant (unknown origin) assessed as remaining activity at 1 uM by Kinome scan method relative to control
[11] = target: NUAK family SNF1-like kinase 2 (Homo sapiens) (UniProt Q9H093); test: Inhibition of human SNARK assessed as residual activity at 1 uM using histone H2B as substrate in presence of 33P-ATP by ProQinase assay relative to control
[12] = target: Mitogen-activated protein kinase kinase kinase 8 (Homo sapiens) (UniProt P41279); test: Inhibition of human COT assessed as residual activity at 1 uM using RBER-CHKtide as substrate in presence of 33P-ATP by ProQinase assay relative to control
[13] = Anti-inflammatory activity against human derived high respond PBMC cells assessed as inhibition in stimulated IL-4 cytokine release incubated for 2 hrs in the presence of LPS/SEB/aCD28 by Luminex based sandwich immunoassay; format: functional, cell-based
[14] = target: Serine/threonine-protein kinase N1 (Homo sapiens) (UniProt Q16512); test: Inhibition of PKN1 (unknown origin) assessed as remaining activity at 1 uM by Kinome scan method relative to control
[15] = target: Tyrosine-protein kinase JAK1 (Homo sapiens) (UniProt P23458); test: Inhibition of JAK1 JH2 domain (unknown origin) assessed as remaining activity at 1 uM by Kinome scan method relative to control
[16] = tested on: Epidermal growth factor receptor (Homo sapiens), P00533 [UNDEFINED MUTATION]; test: Inhibition of human EGFR d747-749/A750P mutant assessed as residual activity at 1 uM using PolyEY as substrate in presence of 33P-ATP by ProQinase assay relative to control
[17] = target: Cytoplasmic tyrosine-protein kinase BMX (Homo sapiens) (UniProt P51813); test: Inhibition of BMX (unknown origin) assessed as remaining activity at 1 uM by Kinome scan method relative to control
[18] = target: Leucine-rich repeat serine/threonine-protein kinase 2 (Homo sapiens) (UniProt Q5S007); test: Inhibition of human LRRK2 assessed as residual activity at 1 uM using RBER-GSK3(14-27) as substrate in presence of 33P-ATP by ProQinase assay relative to control
[19] = target: Casein kinase II subunit alpha (Homo sapiens) (UniProt P68400); test: Inhibition of human CK2alpha1 assessed as residual activity at 1 uM using casein as substrate in presence of 33P-ATP by ProQinase assay relative to control
[20] = target: T1, Serine/threonine-protein kinase NLK (Homo sapiens) (UniProt Q9UBE8); test: Inhibition of human NLK assessed as residual activity at 1 uM using RBER-GSK3 as substrate in presence of 33P-ATP by ProQinase assay relative to control
T1 sequence (whole entry): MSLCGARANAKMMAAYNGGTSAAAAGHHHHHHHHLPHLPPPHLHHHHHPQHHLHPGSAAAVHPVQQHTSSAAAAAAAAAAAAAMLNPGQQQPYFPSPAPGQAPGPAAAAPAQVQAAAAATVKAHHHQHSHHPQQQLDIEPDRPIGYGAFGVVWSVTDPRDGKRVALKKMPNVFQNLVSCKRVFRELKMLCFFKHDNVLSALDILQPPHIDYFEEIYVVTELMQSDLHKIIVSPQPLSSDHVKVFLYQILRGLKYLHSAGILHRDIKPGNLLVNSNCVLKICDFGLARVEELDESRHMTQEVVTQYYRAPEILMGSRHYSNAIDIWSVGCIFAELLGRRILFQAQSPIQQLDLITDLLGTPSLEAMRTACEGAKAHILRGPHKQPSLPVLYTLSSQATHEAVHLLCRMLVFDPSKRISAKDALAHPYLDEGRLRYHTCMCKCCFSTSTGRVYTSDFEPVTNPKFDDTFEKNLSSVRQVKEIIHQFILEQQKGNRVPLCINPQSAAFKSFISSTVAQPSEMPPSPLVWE

[21] = target: Ephrin type-A receptor 5 (Homo sapiens) (UniProt P54756); test: Inhibition of human EPHA5 assessed as residual activity at 1 uM using polyEY as substrate in presence of 33P-ATP by ProQinase assay relative to control
[22] = Plasma concentration in Gal/LPS induced mouse at 3 mg/kg, po for 1 hrs; format: ADME, organism-based
[23] = Anti-inflammatory activity against human derived medium respond PBMC cells assessed as inhibition in stimulated IL-8 cytokine release incubated for 2 hrs in the presence of LPS/SEB/aCD28 by Luminex based sandwich immunoassay; format: functional, cell-based
[24] = target: Dual specificity protein kinase CLK2 (Homo sapiens) (UniProt P49760); test: Inhibition of CLK2 (unknown origin) assessed as remaining activity at 1 uM by Kinome scan method relative to control
Dual specificity protein kinase CLK2 (Homo sapiens), sequence (P49760 whole entry, looked up): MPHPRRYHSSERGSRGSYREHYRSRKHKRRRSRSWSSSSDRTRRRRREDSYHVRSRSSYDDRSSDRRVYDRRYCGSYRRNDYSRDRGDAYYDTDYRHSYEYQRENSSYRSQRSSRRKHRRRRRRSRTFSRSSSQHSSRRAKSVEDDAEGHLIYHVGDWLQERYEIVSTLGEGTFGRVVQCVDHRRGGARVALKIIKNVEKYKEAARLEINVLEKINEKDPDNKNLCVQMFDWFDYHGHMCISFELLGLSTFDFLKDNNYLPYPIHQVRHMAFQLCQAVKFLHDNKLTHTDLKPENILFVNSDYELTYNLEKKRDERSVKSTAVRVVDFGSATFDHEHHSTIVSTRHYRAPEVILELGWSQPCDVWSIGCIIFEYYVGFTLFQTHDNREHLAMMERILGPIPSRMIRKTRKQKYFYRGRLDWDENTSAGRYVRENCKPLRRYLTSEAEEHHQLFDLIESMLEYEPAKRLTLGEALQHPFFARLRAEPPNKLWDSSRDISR

Casein kinase II subunit alpha (Homo sapiens), sequence (P68400 whole entry, looked up): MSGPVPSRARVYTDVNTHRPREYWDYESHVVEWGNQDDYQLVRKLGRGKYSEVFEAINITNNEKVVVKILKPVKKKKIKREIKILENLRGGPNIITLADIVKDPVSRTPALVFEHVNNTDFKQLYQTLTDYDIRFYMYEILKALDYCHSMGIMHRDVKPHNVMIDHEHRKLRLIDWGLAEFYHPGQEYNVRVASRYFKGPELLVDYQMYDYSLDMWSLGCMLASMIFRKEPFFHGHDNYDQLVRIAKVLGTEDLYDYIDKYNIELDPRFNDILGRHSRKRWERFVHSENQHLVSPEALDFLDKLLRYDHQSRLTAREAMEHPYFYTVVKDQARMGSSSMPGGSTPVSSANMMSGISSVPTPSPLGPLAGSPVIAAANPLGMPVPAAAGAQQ
NUAK family SNF1-like kinase 2 (Homo sapiens), sequence (Q9H093 whole entry): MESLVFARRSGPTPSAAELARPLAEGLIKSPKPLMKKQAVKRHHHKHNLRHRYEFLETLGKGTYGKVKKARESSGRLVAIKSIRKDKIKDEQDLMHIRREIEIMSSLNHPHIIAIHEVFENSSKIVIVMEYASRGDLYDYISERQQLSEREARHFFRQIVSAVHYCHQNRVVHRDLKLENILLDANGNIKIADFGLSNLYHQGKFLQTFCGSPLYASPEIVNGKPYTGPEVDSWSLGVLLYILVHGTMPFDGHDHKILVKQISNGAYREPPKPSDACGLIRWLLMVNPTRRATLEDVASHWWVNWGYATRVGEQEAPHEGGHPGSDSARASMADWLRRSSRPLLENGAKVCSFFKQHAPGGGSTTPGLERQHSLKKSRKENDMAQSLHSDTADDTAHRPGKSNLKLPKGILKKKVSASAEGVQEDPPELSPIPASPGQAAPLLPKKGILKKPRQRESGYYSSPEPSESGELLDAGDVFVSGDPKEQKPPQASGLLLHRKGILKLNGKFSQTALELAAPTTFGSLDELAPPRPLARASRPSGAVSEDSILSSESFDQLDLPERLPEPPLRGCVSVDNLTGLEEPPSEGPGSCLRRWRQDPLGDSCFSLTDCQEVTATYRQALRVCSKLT
Cytoplasmic tyrosine-protein kinase BMX (Homo sapiens), sequence (P51813 whole entry): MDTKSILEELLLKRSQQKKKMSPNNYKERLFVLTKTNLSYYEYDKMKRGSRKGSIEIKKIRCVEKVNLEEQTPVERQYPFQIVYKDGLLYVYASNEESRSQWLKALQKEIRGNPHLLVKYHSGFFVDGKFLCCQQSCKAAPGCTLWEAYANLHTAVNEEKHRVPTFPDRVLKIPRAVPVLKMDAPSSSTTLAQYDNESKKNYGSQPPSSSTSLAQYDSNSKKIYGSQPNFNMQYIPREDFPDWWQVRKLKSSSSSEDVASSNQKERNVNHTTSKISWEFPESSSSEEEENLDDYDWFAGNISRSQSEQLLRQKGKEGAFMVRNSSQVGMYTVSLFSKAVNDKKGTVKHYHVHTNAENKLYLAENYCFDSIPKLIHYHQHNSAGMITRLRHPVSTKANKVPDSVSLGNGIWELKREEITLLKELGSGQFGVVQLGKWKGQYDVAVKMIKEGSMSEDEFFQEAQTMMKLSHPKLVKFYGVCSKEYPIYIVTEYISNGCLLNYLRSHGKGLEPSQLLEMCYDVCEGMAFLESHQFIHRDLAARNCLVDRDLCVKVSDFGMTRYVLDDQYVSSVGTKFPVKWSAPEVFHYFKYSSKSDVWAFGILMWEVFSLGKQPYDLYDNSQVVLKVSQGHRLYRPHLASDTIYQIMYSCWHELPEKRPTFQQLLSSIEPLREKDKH
Ephrin type-A receptor 5 (Homo sapiens), sequence (P54756 whole entry): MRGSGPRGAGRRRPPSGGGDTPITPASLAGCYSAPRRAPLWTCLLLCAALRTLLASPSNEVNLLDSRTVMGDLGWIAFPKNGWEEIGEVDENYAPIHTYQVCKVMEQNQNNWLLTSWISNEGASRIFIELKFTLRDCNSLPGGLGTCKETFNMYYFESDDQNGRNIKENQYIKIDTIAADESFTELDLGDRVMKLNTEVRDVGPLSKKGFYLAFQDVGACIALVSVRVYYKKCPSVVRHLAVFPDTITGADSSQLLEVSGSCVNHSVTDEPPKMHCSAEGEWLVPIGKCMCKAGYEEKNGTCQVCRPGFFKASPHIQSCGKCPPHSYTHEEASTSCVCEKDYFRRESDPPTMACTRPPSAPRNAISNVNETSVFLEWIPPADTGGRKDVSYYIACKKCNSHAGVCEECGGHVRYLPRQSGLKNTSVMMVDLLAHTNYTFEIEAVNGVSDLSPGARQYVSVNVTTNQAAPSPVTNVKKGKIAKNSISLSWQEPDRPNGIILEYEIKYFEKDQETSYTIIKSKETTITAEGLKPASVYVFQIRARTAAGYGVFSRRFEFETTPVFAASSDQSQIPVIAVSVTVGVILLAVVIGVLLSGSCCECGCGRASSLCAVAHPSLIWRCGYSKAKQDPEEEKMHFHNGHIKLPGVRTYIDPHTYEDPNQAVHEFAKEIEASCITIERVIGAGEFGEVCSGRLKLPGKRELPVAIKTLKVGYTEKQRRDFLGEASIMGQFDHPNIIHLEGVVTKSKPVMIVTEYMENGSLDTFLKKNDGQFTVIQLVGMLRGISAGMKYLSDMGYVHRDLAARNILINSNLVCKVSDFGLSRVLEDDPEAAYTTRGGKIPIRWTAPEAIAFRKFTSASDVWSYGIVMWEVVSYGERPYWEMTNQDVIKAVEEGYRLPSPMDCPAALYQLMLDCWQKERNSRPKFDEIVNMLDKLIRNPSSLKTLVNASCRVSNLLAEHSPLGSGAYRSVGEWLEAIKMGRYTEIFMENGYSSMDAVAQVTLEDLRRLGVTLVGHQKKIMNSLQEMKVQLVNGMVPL
RAC-beta serine/threonine-protein kinase (Homo sapiens), sequence (P31751 whole entry): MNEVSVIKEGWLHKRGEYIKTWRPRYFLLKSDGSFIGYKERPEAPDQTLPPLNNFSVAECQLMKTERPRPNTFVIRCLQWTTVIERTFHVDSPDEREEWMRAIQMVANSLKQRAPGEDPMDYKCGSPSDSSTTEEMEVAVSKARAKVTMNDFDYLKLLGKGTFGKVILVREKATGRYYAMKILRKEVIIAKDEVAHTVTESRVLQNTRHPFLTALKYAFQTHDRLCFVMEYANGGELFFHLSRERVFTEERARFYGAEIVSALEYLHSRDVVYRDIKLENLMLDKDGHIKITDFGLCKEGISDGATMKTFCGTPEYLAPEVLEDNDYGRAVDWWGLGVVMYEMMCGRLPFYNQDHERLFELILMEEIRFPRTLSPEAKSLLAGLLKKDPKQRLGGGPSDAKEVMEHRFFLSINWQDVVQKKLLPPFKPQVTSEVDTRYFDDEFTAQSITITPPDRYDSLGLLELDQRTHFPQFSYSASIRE
Uncharacterized serine/threonine-protein kinase SBK3 (Homo sapiens), sequence (P0C264 whole entry): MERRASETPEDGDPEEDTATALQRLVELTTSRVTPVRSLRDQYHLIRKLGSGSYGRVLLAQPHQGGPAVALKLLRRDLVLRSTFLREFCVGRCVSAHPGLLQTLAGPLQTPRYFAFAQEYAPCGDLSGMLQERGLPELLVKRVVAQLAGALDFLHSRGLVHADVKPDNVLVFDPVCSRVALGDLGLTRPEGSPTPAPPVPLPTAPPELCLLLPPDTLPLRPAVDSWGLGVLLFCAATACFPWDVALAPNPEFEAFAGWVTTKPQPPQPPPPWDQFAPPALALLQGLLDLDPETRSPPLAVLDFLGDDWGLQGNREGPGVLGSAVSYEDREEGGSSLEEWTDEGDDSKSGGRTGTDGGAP
Serine/threonine-protein kinase N1 (Homo sapiens), sequence (Q16512 2-942 limits assumed): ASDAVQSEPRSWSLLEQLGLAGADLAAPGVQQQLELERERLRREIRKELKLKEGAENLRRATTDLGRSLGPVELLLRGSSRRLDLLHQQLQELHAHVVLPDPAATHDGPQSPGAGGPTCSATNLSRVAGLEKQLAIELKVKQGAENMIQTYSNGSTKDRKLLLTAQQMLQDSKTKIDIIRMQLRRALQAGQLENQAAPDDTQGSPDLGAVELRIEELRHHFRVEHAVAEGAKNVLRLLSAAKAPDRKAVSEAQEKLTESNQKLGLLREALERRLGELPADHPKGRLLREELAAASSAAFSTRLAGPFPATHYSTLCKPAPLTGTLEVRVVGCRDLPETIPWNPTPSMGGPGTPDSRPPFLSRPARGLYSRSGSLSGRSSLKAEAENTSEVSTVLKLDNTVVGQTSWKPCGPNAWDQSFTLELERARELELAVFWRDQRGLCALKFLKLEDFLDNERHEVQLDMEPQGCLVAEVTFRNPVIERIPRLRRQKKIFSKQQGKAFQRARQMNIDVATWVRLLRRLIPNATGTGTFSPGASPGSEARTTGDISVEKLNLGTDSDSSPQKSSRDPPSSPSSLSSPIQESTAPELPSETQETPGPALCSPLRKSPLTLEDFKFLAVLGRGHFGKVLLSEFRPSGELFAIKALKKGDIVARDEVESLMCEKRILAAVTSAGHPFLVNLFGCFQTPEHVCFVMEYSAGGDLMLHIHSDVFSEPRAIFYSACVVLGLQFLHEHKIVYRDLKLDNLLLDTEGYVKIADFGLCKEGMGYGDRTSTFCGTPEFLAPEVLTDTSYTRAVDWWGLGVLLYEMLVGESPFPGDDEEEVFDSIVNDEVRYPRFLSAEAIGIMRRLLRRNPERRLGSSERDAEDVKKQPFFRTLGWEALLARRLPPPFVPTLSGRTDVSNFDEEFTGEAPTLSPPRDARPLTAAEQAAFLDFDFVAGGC

With `O=C1c2ccc(Nc3ccc(F)cc3F)cc2CCc2ccc(OC[C@H](O)CO)cc21` [Skepinone-L] the Activity [1] was 90%, the Activity [2] was 93% and the Activity [3] was 100%. The IC50 [4] was 420 nM, the Activity [5] was 93% and the Activity [6] was 119%. It also gave an Activity [7] of 90%, an Activity [8] of 98% and an Activity [9] of 90%. For the same compound, the Activity [10] was 100%, the Activity [11] was 115% and the Activity [12] was 91%. For the same compound, the IC50 [13] was “Not Active”, the Activity [14] was 91% and the Activity [15] was 86%. It also gave an Activity [16] of 96%, an Activity [17] of 100% and an Activity [18] of 98%. The Activity [19] was 95%, the Activity [20] was 87% and the Activity [21] was 132%. For the same compound, the concentration at 1 h [22] was 240 nM, the IC50 [23] was 60 nM and the Activity [24] was 90%.
